One test has as its target M. tuberculosis EthR (Mycobacterium tuberculosis, UniProt P9WMC1). The test is described as follows: Surface plasmon resonance assay of EthR binding to ethA promoter DNA. Particulars: for LE (ligand efficiency): ligand efficiency for EthR inhibition. The protocol: The surface plasmon resonance (SPR) assay was performed on a BIAcore T100 with a protocol similar to what was previously described (Surade et al., [2014]). […] For the initial screening a single run was performed for each compound. A 2 μM EthR solution was then incubated individually with each of the compounds at 100 μM, in 2 mM MgCl2, 10 mM TRIS/HCL pH 7.5, 200 mM NaCl, 0.1 mM EDTA, and 2% DMSO and flowed over the chip at 20 μl/min for 120 s. For dissociation 150 s were given using the same flow rate. Binding was determined by subtracting the response of the control channel from the experimental channel at steady-state. Regeneration of the chip was performed between samples by flowing 0.03% SDS in running buffer for 60 s at 20 μl/min. […] Data were analyzed in Prism 5 (Graphpad software) and IC50 were calculated using a non-linear regression model. Dose response experiments were performed in triplicate.
For orientation: SPR reads the build-up and loss of mass on a sensor chip optically.

Test [1] relates to Mycobacterium tuberculosis H37Rv. Set-up: method as in Ballell et al., 2013. The settings on record: M. tuberculosis whole cell; ref Ballell et al., 2013; cited from earlier work.
A further test concerns the target InhA (Mycobacterium tuberculosis, UniProt P9WGR1). The test is described as follows: InhA spectrophotometric enzymatic assay (NADH oxidation, 2-trans-octanoyl-CoA). The test is classed as biochemical. The settings on record: compound at 100 μM, 100 nM InhA, triplicate. The protocol:
InhA activity was assessed by a spectrophotometric assay that followed the oxidation of NADH at λ = 340 nm in the presence of 2-trans-octanoyl-CoA. Compounds were dissolved in 100% DMSO. The enzyme reaction contains 30 mM PIPES pH 7.5, 50 mM NaCl, 1% (v/v) DMSO and 0.1 mM EDTA. InhA (100 nM) was pre-incubated for 10 min at room temperature with 0.25 mM NADH and compounds at a final concentration of 100 μM in 150 μl reaction volume. The reaction is started by the addition of 2-trans-octanoyl-CoA at a final concentration of 1.5 mM, prepared as described previously (He et al., [2006]). The reactions were followed for 20 min using a spectrophotometer plate reader (CLARIOstar—BMG LABTECH). Inhibition percentage was calculated based on the initial rates of reaction. All experiments were performed in triplicate.

[2] abbreviates: SPR dose response 0.78-100 μM, triplicate, table head prints no unit, μM, read-out: IC50.
The mark [3] stands for this setting: inhibition of EthR binding to ethA promoter DNA.
Setting [4] is: IC50, SPR dose response 0.78-100 μM, triplicate, table head prints no unit, μM.

Broadly, the inhibition is the percentage by which the read-out fell short of the control. Higher therefore signals a strong effect. The MIC is the lowest concentration found to suppress growth. A word on the IC50: it is the midpoint of a concentration-inhibition curve.

Each structure is given as a SMILES string. ≈ marks a conversion by molar mass, not a printed value. Where “and” joins values, the source holds several entries; their conditions need not be identical. Identical values can stand only once. Like-named read-outs stand apart in the source and are kept apart here.

M. tuberculosis EthR, sequence (P9WMC1 whole entry, looked up): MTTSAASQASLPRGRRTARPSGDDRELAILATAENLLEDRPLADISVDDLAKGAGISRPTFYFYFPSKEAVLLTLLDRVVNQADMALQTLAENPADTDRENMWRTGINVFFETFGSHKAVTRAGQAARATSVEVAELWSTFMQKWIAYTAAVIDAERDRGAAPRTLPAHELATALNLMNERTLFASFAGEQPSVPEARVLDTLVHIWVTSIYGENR
InhA, sequence (P9WGR1 whole entry, looked up): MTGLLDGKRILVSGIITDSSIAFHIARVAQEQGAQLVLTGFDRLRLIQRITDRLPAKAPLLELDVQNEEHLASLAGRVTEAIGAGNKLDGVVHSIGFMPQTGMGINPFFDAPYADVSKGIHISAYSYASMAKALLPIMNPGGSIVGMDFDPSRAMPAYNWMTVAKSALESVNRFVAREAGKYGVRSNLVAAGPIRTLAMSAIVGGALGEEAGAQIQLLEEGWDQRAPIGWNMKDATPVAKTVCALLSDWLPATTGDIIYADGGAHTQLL

Turning to `Clc1ccc(Nc2nc(-c3ccccn3)cs2)nc1` [Compound 5], the inhibition at 100 µM on M. tuberculosis EthR was determined as 99%. The “MIC” value in test [1] is 5.9 µM (≈ 1.7 µg/mL).

As for `c1ccc(-c2csc(Nc3nc4cc5c(cc4s3)OCO5)n2)nc1` [Compound 4], the half-maximal inhibitory concentration (IC50) at M. tuberculosis EthR (setting [2]) is ~13 µM and 13 µM. The “Inhibition (100 μM) (%)” value on M. tuberculosis EthR (SPR, inhibition of EthR binding to DNA, compound at 100 μM, 2 μM EthR, single run) came out at 100%. Besides, on M. tuberculosis EthR, the “LE (ligand efficiency)” value is 0.28. Also, in test [1], the “MIC” value was 2.7 µM (≈ 0.957 µg/mL).

With `CCc1ccc(Nc2nnc(SCc3cc(C)on3)s2)cc1` [Compound 8], the results for the inhibition at 100 µM at M. tuberculosis EthR and against InhA were 92.8% and greater than 40%, respectively. Also, the “MIC” value in test [1] is 2.8 µM (≈ 0.931 µg/mL).

For the molecule `N=C(Nc1nc(-c2ccccn2)cc2ccccc12)c1cccc(Cl)c1` [GSK381407a], the “SPR Inhibition (%)” value on M. tuberculosis EthR (setting [3]) is on record as 59%.

Regarding `Nc1ccccc1Nc1ccc2c(c1)OCO2` [Compound 12], the inhibition at 100 µM on M. tuberculosis EthR stood at 67%. Further, the IC50 at M. tuberculosis EthR (SPR IC50 (µM), inhibition of EthR binding to ethA promoter DNA) is greater than 100 µM. The “MIC” value in test [1] is 1.8 µM (≈ 0.411 µg/mL).

On to `CCCCS(=O)(=O)Nc1ccc2cnn(C)c2c1` [GSK3011724a], for which, on M. tuberculosis EthR (setting [3]), the “SPR Inhibition (%)” value is 28%.

At M. tuberculosis EthR, `CSc1ccc(C(=O)Nc2nc(-c3ccccn3)cs2)cc1` [Compound 10] yielded an inhibition at 100 µM of 74%. For the same molecule, the “MIC” value in test [1] was 8.7 µM (≈ 2.85 µg/mL).

Consider `Fc1ccc2nc(Nc3nc(-c4ccccn4)cs3)sc2c1` [Compound 6], for which, on M. tuberculosis EthR, the inhibition at 100 µM amounted to 97% and the “LE (ligand efficiency)” value is 0.30. At M. tuberculosis EthR (setting [4]), this molecule returned an IC50 of 22 µM. In addition, in test [1], the “MIC” value is 2.3 µM (≈ 0.755 µg/mL).

For the molecule `O=C(Cc1ccc(F)cc1)Nc1nc(-c2ccccn2)cs1` [Compound 2], at M. tuberculosis EthR, at 100 µM the inhibition was 100% and the “LE (ligand efficiency)” value is reported as 0.31. At M. tuberculosis EthR (setting [4]), the 50% inhibitory concentration (IC50) stood at 9.9 µM. Besides, the “MIC” value in test [1] is 9.3 µM (≈ 2.91 µg/mL).

For `Br.CC1(C)NC(N)=NC(=N)N1OCCCOc1ccc(Cl)cc1Cl` [BRL-51091am], the “SPR Inhibition (%)” value on M. tuberculosis EthR (setting [3]) was 41%.

Turning to `O=C(NC1=NCCS1)c1sc2cc(F)ccc2c1Cl` [Compound 1], at M. tuberculosis EthR, testing at 100 µM gave an inhibition of 100% and the “LE (ligand efficiency)” value worked out at 0.35. Also, at M. tuberculosis EthR (setting [4]), the 50% inhibitory concentration (IC50) was ~12 µM and 12 µM. The “MIC” value in test [1] was 8.6 µM (≈ 2.71 µg/mL).

Take `O=C(COc1cccc(F)c1)Nc1nc(-c2ccccn2)cs1` [Compound 7]: at M. tuberculosis EthR, 100 µM produced 93% inhibition and the “LE (ligand efficiency)” value is recorded as 0.26. At M. tuberculosis EthR (setting [2]), the half-inhibitory concentration (IC50) came out at 50 µM.

`O=C(C1CCN(c2nnc(-n3cccc3)s2)CC1)N1CCC(Cc2ccccc2)CC1` [Compound 3]: at M. tuberculosis EthR, at 100 µM the inhibition was 100% and the “LE (ligand efficiency)” value was 0.24. Besides, the IC50 at M. tuberculosis EthR (setting [4]) worked out at 3.9 µM. Besides, the “MIC” value in test [1] is 4.2 µM (≈ 1.83 µg/mL).

The record behind these values is PMC5623190, “Target Identification of Mycobacterium tuberculosis Phenotypic Hits Using a Concerted Chemogenomic, Biophysical, and Structural Approach” (Frontiers in Pharmacology, 2017).
